DBAASP
In brackets after ≈: the same amount, converted by molar mass.

Tests used:
Assay in all cases: ≥ marks a high value that may be exact or a test limit, other limits are often not marked, values filed in µg/mL are converted to µM
[1] = tested on: Escherichia coli UB1005
[2] = tested on: Salmonella enterica serovar Typhimurium
[3] = tested on: Pseudomonas aeruginosa H103
[4] = tested on: Staphylococcus aureus ATCC 25923
[5] = tested on: Enterococcus faecalis ATCC 29212
[6] = tested on: Candida albicans
[7] = tested on: Staphylococcus epidermidis
[8] = tested on: Staphylococcus epidermidis ATCC 12228
[9] = tested on: Staphylococcus aureus ATCC 29213
[10] = tested on: Bacillus subtilis ATCC 23857
[11] = tested on: Escherichia coli ATCC 25922
[12] = tested on: Escherichia coli ML-35
[13] = tested on: Candida albicans ATCC 2002
[14] = tested on: Pseudomonas aeruginosa CMCCB 10104
[15] = tested on: Bacillus subtilis
[16] = tested on: Escherichia coli
[17] = tested on: Staphylococcus aureus

MIC [1] [µM] | MIC [2] [µM] | MIC [3] [µM] | MIC [4] [µM] | MIC [5] [µM] | MIC [6] [µM] | MIC [7] [µM] | MIC [11] [µM] | MIC [13] [µM] | MIC [14] [µM] | Structure (SMILES) | also measured
2.8 (≈ 4.17 µg/mL) | 5.6 (≈ 8.33 µg/mL) | 11.1 (≈ 16.5 µg/mL) | 0.7 (≈ 1.04 µg/mL) | 11.1 (≈ 16.5 µg/mL) | 5.6 (≈ 8.33 µg/mL) | 0.7 (≈ 1.04 µg/mL) |  |  |  | NCCCC[C@H](NC(=O)[C@H](Cc1c[nH]c2ccccc12)NC(=O)[C@H](Cc1c[nH]c2ccccc12)NC(=O)[C@H](CCCN=C(N)N)NC(=O)[C@@H](N)CCCCN)C(=O)N[C@@H](Cc1c[nH]c2ccccc12)C(=O)N[C@@H](Cc1c[nH]c2ccccc12)C(=O)N[C@@H](CCCN=C(N)N)C(=O)N[C@@H](CCCN=C(N)N)C(=O)O [KRWWKWWRR] | 
 |  |  |  |  |  |  | > 256 |  |  | CC[C@H](C)[C@H](N)C(=O)N[C@@H](CC(C)C)C(=O)NCC(=O)N[C@H](C(=O)N[C@H](C(=O)N[C@@H](CC(C)C)C(=O)NCC(=O)N1CCC[C@H]1C(=O)N[C@@H](CC(C)C)C(=O)N[C@@H](CCCCN)C(=O)NCC(=O)N[C@@H](CC(C)C)C(N)=O)[C@@H](C)CC)[C@@H](C)O [ILGTILGPLKGL] | MIC [8]: > 256 µM; MIC [9]: > 256 µM; MIC [10]: ≥ 256 µM; MIC [12]: ≥ 256 µM
≥ 86.5 | ≥ 86.5 | ≥ 86.5 | 86.5 (≈ 114 µg/mL) | > 86.5 | 86.5 (≈ 114 µg/mL) | ≥ 43.3 |  |  |  | CC(C)C[C@H](NC(=O)[C@H](CCCCN)NC(=O)[C@H](CCCN=C(N)N)NC(=O)[C@H](Cc1c[nH]c2ccccc12)NC(=O)[C@@H](N)CC(N)=O)C(=O)N[C@@H](Cc1ccc(O)cc1)C(=O)N[C@@H](CCCN=C(N)N)C(=O)N[C@@H](CCCN=C(N)N)C(=O)N[C@@H](CCCCN)C(=O)O [NWRKLYRRK] | 
2.03 (≈ 3 µg/mL) | 4.06 (≈ 6 µg/mL) | 4.06 (≈ 6 µg/mL) | 4.06 (≈ 6 µg/mL) |  | 2.03 (≈ 3 µg/mL) | 1.08 (≈ 1.6 µg/mL) |  |  |  | CC[C@H](C)[C@H](NC(=O)[C@H](CCCN=C(N)N)NC(=O)[C@H](CC(C)C)NC(=O)[C@H](CCCN=C(N)N)NC(=O)[C@@H](N)C(C)C)C(=O)N[C@@H](CCCN=C(N)N)C(=O)N[C@H](C(=O)N[C@@H](C)C(=O)N[C@H](C(=O)N[C@H](C(=O)N[C@@H](CCCN=C(N)N)C(=O)N[C@@H](CCCCN)C(N)=O)[C@@H](C)CC)C(C)C)C(C)C [VRLRIRVAVIRK] | 
3.2 (≈ 4.22 µg/mL) | 6.4 (≈ 8.43 µg/mL) | 25.7 (≈ 33.9 µg/mL) | 1.6 (≈ 2.11 µg/mL) | 6.4 (≈ 8.43 µg/mL) | 6.4 (≈ 8.43 µg/mL) | 1.6 (≈ 2.11 µg/mL) |  |  |  | CC[C@H](C)[C@H](NC(=O)[C@H](Cc1ccccc1)NC(=O)[C@H](CCCN=C(N)N)NC(=O)[C@@H](N)CC(C)C)C(=O)N[C@@H](CC(C)C)C(=O)N[C@@H](Cc1c[nH]c2ccccc12)C(=O)N[C@@H](Cc1c[nH]c2ccccc12)C(=O)N[C@@H](CCCCN)C(=O)N[C@@H](CCCN=C(N)N)C(=O)O [LRFILWWKR] | 
 |  |  | 4.47 (≈ 11.4 µg/mL) |  |  |  | 2.23 (≈ 5.7 µg/mL) | 4.47 (≈ 11.4 µg/mL) | 2.23 (≈ 5.7 µg/mL) | CSCC[C@H](NC(=O)[C@H](CCC(=O)O)NC(=O)[C@H](CS)NC(=O)[C@H](C)NC(=O)[C@@H](NC(=O)CNC(=O)[C@H](C)NC(=O)[C@@H](NC(=O)[C@H](Cc1ccccc1)NC(=O)[C@@H]1CCCN1C(=O)[C@H](CC(C)C)NC(=O)[C@@H](N)CCC(N)=O)C(C)C)C(C)C)C(=O)N[C@@H](CS)C(=O)N[C@@H](CCC(N)=O)C(=O)N[C@@H](CS)C(=O)N[C@H](C(=O)N[C@@H](Cc1ccc(O)cc1)C(=O)N[C@H]1CSSC[C@@H](C(=O)O)NC(=O)[C@H](CCCCN)NC(=O)[C@H](CCCCN)NC(=O)[C@H](CO)NC(=O)[C@H](C)NC(=O)[C@H](C)NC1=O)C(C)C [QLPFVAGVACEMCQCVYCAASKKC] | 
 |  |  | 1.22 (≈ 4 µg/mL) |  |  |  | 2.4 (≈ 7.9 µg/mL) | 1.22 (≈ 4 µg/mL) | 4.8 (≈ 15.8 µg/mL) | CC(C)C[C@H](NC(=O)[C@H](CC(C)C)NC(=O)[C@H](CC(N)=O)NC(=O)[C@H](CCCCN)NC(=O)[C@@H](NC(=O)[C@@H](NC(=O)[C@H](C)NC(=O)[C@H](CC(C)C)NC(=O)[C@@H](NC(=O)CN)C(C)C)[C@@H](C)O)C(C)C)C(=O)N[C@@H](CC(N)=O)C(=O)NCC(=O)N[C@H](C(=O)NCC(=O)N[C@@H](CC(=O)O)C(=O)NCC(=O)N[C@@H](C)C(=O)N[C@@H](C)C(=O)N[C@@H](CCC(N)=O)C(=O)N[C@@H](CO)C(=O)N[C@H](C(=O)N[C@@H](CC(C)C)C(=O)N[C@@H](CCCCN)C(=O)N[C@H](C(=O)N[C@@H](CC(C)C)C(=O)N[C@@H](CO)C(=O)N[C@H]1CSSC[C@@H](C(=O)O)NC(=O)[C@H](CC(=O)O)NC(=O)[C@H](CC(N)=O)NC(=O)[C@H](CO)NC(=O)[C@H](CC(C)C)NC(=O)[C@H](CCCCN)NC1=O)[C@@H](C)O)C(C)C)[C@@H](C)O [GVLATVKNLLNGTGDGAAQSVLKTLSCKLSNDC] | 
 |  |  | 0.915 (≈ 4.4 µg/mL) |  |  |  | 1.83 (≈ 8.8 µg/mL) | 1.83 (≈ 8.8 µg/mL) | 3.66 (≈ 17.6 µg/mL) | CC[C@H](C)[C@H](NC(=O)CN)C(=O)N[C@@H](Cc1ccccc1)C(=O)N[C@@H](CO)C(=O)N[C@@H](CCCCN)C(=O)N[C@H](C(=O)N[C@@H](CO)C(=O)NCC(=O)N[C@@H](CCCCN)C(=O)N[C@@H](C)C(=O)N[C@H](C(=O)N[C@@H](CCCCN)C(=O)N[C@@H](CC(N)=O)C(=O)N[C@@H](CC(C)C)C(=O)N[C@@H](Cc1ccccc1)C(=O)N[C@H](C(=O)N[C@@H](CCCCN)C(=O)NCC(=O)N[C@@H](C)C(=O)N[C@@H](CCCCN)C(=O)N[C@@H](CC(N)=O)C(=O)N[C@H](C(=O)NCC(=O)N[C@@H](CCCCN)C(=O)N[C@@H](CCC(=O)O)C(=O)N[C@H](C(=O)NCC(=O)N[C@@H](CCSC)C(=O)N[C@@H](CC(=O)O)C(=O)N[C@H](C(=O)N[C@H](C(=O)N[C@@H](CCCN=C(N)N)C(=O)N[C@H](C(=O)NCC(=O)N[C@H](C(=O)N[C@@H](CC(=O)O)C(=O)N[C@H](C(=O)N[C@H](C(=O)NCC(=O)N[C@H]1CSSC[C@@H](C(=O)O)NC(=O)[C@H](CCC(=O)O)NC(=O)CNC(=O)[C@H](CCCCN)NC(=O)[C@H]([C@@H](C)CC)NC(=O)[C@H](CCCCN)NC1=O)C(C)C)C(C)C)[C@@H](C)CC)[C@@H](C)O)C(C)C)C(C)C)C(C)C)C(C)C)[C@@H](C)CC)[C@@H](C)CC)[C@@H](C)CC [GIFSKISGKAIKNLFIKGAKNVGKEVGMDVVRTGIDVVGCKIKGEC] | 
 |  |  | 8.05 (≈ 20.8 µg/mL) |  | 0.677 (≈ 1.75 µg/mL) |  | 4.02 (≈ 10.4 µg/mL) | 4.02 (≈ 10.4 µg/mL) | 2.01 (≈ 5.2 µg/mL) | CC[C@H](C)[C@H](NC(=O)[C@@H](N)C(C)C)C(=O)N1CCC[C@H]1C(=O)N[C@@H](Cc1ccccc1)C(=O)N[C@H](C(=O)N[C@@H](C)C(=O)N[C@@H](CO)C(=O)N[C@H](C(=O)N[C@@H](C)C(=O)N[C@@H](C)C(=O)N[C@@H](CCC(=O)O)C(=O)N[C@@H](CCSC)C(=O)N[C@@H](CCSC)C(=O)N[C@@H](CCC(N)=O)C(=O)N[C@@H](Cc1cnc[nH]1)C(=O)N[C@H](C(=O)N[C@@H](Cc1ccc(O)cc1)C(=O)N[C@H]1CSSC[C@@H](C(=O)O)NC(=O)[C@H](CCCCN)NC(=O)[C@H](CCCCN)NC(=O)[C@H](CO)NC(=O)[C@H](C)NC(=O)[C@H](C)NC1=O)C(C)C)C(C)C)C(C)C [VIPFVASVAAEMMQHVYCAASKKC] | MIC [15]: 0.677 µM (≈ 1.75 µg/mL); MIC [16]: 1.35 µM (≈ 3.5 µg/mL); MIC [17]: 1.35 µM (≈ 3.5 µg/mL)
5.8 (≈ 7.85 µg/mL) | 23.1 (≈ 31.2 µg/mL) | ≥ 46.1 | 2.9 (≈ 3.92 µg/mL) | 11.5 (≈ 15.6 µg/mL) | 11.5 (≈ 15.6 µg/mL) | 2.9 (≈ 3.92 µg/mL) |  |  |  | CSCC[C@H](NC(=O)[C@H](CCCCN)NC(=O)[C@H](Cc1ccccc1)NC(=O)[C@@H](N)Cc1c[nH]c2ccccc12)C(=O)N[C@@H](CCCN=C(N)N)C(=O)N[C@@H](Cc1c[nH]c2ccccc12)C(=O)N[C@@H](Cc1c[nH]c2ccccc12)C(=O)NCC(=O)N[C@@H](CCCN=C(N)N)C(=O)O [WFKMRWWGR] | 
2.9 (≈ 4.37 µg/mL) | 5.9 (≈ 8.89 µg/mL) | ≥ 46.9 | 0.7 (≈ 1.05 µg/mL) | 11.7 (≈ 17.6 µg/mL) | 5.9 (≈ 8.89 µg/mL) | 0.7 (≈ 1.05 µg/mL) |  |  |  | NCCCC[C@H](N)C(=O)N[C@@H](CCCN=C(N)N)C(=O)N[C@@H](Cc1c[nH]c2ccccc12)C(=O)N[C@@H](Cc1c[nH]c2ccccc12)C(=O)N[C@@H](Cc1c[nH]c2ccccc12)C(=O)N[C@@H](Cc1c[nH]c2ccccc12)C(=O)N[C@@H](CCCN=C(N)N)C(=O)N[C@@H](Cc1ccccc1)C(=O)N[C@@H](CCCN=C(N)N)C(=O)O [KRWWWWRFR] | 
 |  |  | 13.2 (≈ 21 µg/mL) |  |  |  | 6.58 (≈ 10.5 µg/mL) | 3.32 (≈ 5.3 µg/mL) | 6.58 (≈ 10.5 µg/mL) | CC[C@H](C)[C@H](NC(=O)CNC(=O)[C@H](C)NC(=O)[C@H](Cc1ccccc1)NC(=O)[C@H](CC(C)C)NC(=O)[C@H](CCCCN)NC(=O)[C@@H]1CCCN1C(=O)[C@H](CC(C)C)NC(=O)[C@@H](N)Cc1ccccc1)C(=O)N[C@H](C(=O)N[C@@H](CO)C(=O)N[C@@H](CCCCN)C(=O)N[C@@H](CC(N)=O)C(=O)N[C@@H](Cc1ccccc1)C(=O)O)[C@@H](C)CC [FLPKLFAGIISKNF] | 
